Data reported in US11666598B2 (priority 2019, dated 2023).

How the values were obtained:
[1] = test system: murine bone marrow derived macrophages (BMDM); assay: Cytokine quantification in stimulated bone marrow derived macrophages; assay type: cell-based, C57BL/6 mice; settings: 12 hr pretreatment, then LPS or LPS+IFNγ 12 hr; vs PLGA and insert free controls
Protocol: For experiments, cells were seeded at 90 000 cells cm^−2 in 6 well culture plates. […] Unstimulated cells treated with identical groups were used as a negative control.
Cytokine quantification was conducted on cell supernatants using a mouse 10-plex pro-inflammatory assay or an interferon beta single plex assay (Eve Technologies, Calgary, AB) and calculated using their standard curve. Nitrite content was determined using a Greiss Reagent Kit.

Escherichia coli (BL21) = assay: In vitro E. coli bacterial growth assessment (optical density 600 nm); assay type: cell-based; settings: soluble; rich media (LB broth)
Protocol: Escherichia coli (BL21) was expanded overnight in LB broth, then seeded (1:100) in fresh medium according to growth conditions. Experiments were carried out in modified M9 minimal medium supplemented with appropriate carbon source (Acetate: 1%, Glucose 0.4%) or LB broth (Lennox). Time course assessment of soluble small molecule inhibition was conducted in 96-well culture plates fitted with a breathable film to encourage aeration and cultured for indicated time with incremental optical density measurement (600 nm). Growth media containing solubilized acid was neutralized with sodium hydroxide (pH=7.0).
To determine polymer antimicrobial properties in solution, six well plates were cast with equal mass polymer samples and polymer free culture plate (polystyrene) controls. […] Silver nanoparticles (10 nm) and PLLA (Mn=85-110 kDa, Sigma) were used as positive and negative controls respectively. Soluble assessment of DMI was conducted using the method described for polymer samples using a 12 well plate format (1.5 mL/well).

isocitrate lyase (ICL) = settings: under glucose deprived conditions; cited from earlier work

Row | Compound | IL-6 [1] | concentration showing sensitivity on rich media (Escherichia coli (BL21)) [mM] | inhibition of isocitrate lyase (ICL) (isocitrate lyase (ICL))
1 | C=C(CC(=O)OC)C(=O)OC [DMI, dimethyl itaconate] | marked | > 7.5 | –
2 | C=C(CC(=O)O)C(=O)O [ITA, itaconic acid] | – | – | potent inhibitor
